Results taken from patent US7217730B2, “Method for the use of pyranoindole derivatives to treat infection with Hepatitis C virus” (Wyeth, priority 2002, dated 2007).

Target: T1, NS5B from the BK strain (genotype 1b) (Hepatitis C virus genotype 1b, UniProt P26663)
T1 construct: NS5B from the BK strain (genotype 1b) is expressed in E. coli as a protein in which the 21 C-terminal amino acids are replaced; made in house; host or cells: E. coli
Experiment: Hepatitis C polymerase inhibition, NS5B BK strain, 33P-GTP filter assay
Assay type: biochemical
Conditions: Table 1A; for inhibition at 20 µM: 20 μM compound, read-out: HCV pol % inh at 20 μM; for IC50: NS5B BK strain, read-out: HCV pol BK IC50
In short: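 E. coli-expressed NS5B (BK, genotype 1b) with the 21 C-terminal residues replaced by a linker-His6 tag was preincubated with compound for 15 min at room temperature. It then extended a hairpin-primed heteropolymeric RNA (~3 nM, ~760 nt product) with α-[33P]-GTP for 2 h at 22–25° C. The reaction was stopped with EDTA, and incorporated label was counted on filters.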

T1 sequence (P26663 2420-2989): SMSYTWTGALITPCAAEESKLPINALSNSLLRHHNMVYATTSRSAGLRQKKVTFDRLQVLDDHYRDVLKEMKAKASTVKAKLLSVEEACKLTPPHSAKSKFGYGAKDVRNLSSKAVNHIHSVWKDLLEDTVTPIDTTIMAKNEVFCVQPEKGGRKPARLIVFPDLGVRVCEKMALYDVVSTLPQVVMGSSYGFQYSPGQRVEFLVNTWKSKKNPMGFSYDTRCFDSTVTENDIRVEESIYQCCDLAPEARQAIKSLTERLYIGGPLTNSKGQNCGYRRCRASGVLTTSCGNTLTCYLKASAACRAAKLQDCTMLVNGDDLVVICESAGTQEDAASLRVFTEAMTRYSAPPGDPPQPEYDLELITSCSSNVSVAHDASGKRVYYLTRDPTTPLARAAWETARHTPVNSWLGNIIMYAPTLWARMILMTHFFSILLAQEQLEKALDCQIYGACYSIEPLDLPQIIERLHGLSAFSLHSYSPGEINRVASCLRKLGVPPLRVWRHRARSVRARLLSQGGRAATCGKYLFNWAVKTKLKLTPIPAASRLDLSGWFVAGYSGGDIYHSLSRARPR

SMILES | inhibition at 20 µM [%] | IC50 [nM]
C/C=C/CCC1(CC(=O)O)OCCc2c1[nH]c1c(Cl)cc(C)c(C#N)c21 (stereo not shown) [Example 186, {8-chloro-5-cyano-6-methyl-1-[(3E)-pent-3-enyl]-1,3,4,9-tetrahydropyrano[3,4-b]indol-1-yl}acetic acid] | 2 | > 5000
Cc1cc(Cl)c2[nH]c3c(c2c1C#N)CCOC3(CC(=O)O)c1ccccc1 (stereo not shown) [Example 187, (8-chloro-5-cyano-6-methyl-1-phenyl-1,3,4,9-tetrahydropyrano[3,4-b]indol-1-yl)acetic acid] | 61 | > 5000
Cc1cc(Cl)c2[nH]c3c(c2c1C#N)CCOC3(CC(=O)O)c1ccc(C(=O)O)cc1 (stereo not shown) [Example 188, 4-[1-(carboxymethyl)-8-chloro-5-cyano-6-methyl-1,3,4,9-tetrahydropyrano[3,4-b]indol-1-yl]benzoic acid] | 76 | > 5000
CCC1(CC(=O)O)OCCc2c1[nH]c1c(F)cc(F)c(Br)c21 (stereo not shown) [Example 189, (5-bromo-1-ethyl-6,8-difluoro-1,3,4,9-tetrahydropyrano[3,4-b]indol-1-yl)acetic acid] | 74 | 4200
CCCC1(CC(=O)O)OCCc2c1[nH]c1c(F)cc(F)c(Br)c21 (stereo not shown) [Example 190, (5-bromo-6,8-difluoro-1-propyl-1,3,4,9-tetrahydropyrano[3,4-b]indol-1-yl)acetic acid] | 94 | 200
CCCCC1(CC(=O)O)OCCc2c1[nH]c1c(F)cc(F)c(Br)c21 (stereo not shown) [Example 191, (5-bromo-1-butyl-6,8-difluoro-1,3,4,9-tetrahydropyrano[3,4-b]indol-1-yl)acetic acid] | 93 | 400
O=C(O)CC1(c2ccoc2)OCCc2c1[nH]c1c(F)cc(F)c(Br)c21 (stereo not shown) [Example 192, [5-bromo-6,8-difluoro-1-(3-furyl)-1,3,4,9-tetrahydropyrano[3,4-b]indol-1-yl]acetic acid] | 74 | > 5000
CC(C)C1(CC(=O)O)OCCc2c1[nH]c1c(F)cc(F)c(Br)c21 (stereo not shown) [Example 193, (5-bromo-6,8-difluoro-1-isopropyl-1,3,4,9-tetrahydropyrano[3,4-b]indol-1-yl)acetic acid] | 69 | 4500
CCC1(CC(=O)O)OCCc2c1[nH]c1c(F)cc(F)c(C#N)c21 (stereo not shown) [Example 194, (5-cyano-1-ethyl-6,8-difluoro-1,3,4,9-tetrahydropyrano[3,4-b]indol-1-yl)acetic acid] | 50 | > 5000
CCCC1(CC(=O)O)OCCc2c1[nH]c1c(F)cc(F)c(C#N)c21 (stereo not shown) [Example 195, (5-cyano-6,8-difluoro-1-propyl-1,3,4,9-tetrahydropyrano[3,4-b]indol-1-yl)acetic acid] | 90 | 270
CCCCC1(CC(=O)O)OCCc2c1[nH]c1c(F)cc(F)c(C#N)c21 (stereo not shown) [Example 196, (1-butyl-5-cyano-6,8-difluoro-1,3,4,9-tetrahydropyrano[3,4-b]indol-1-yl)acetic acid] | 77 | 1200
N#Cc1c(F)cc(F)c2[nH]c3c(c12)CCOC3(CC(=O)O)c1ccoc1 (stereo not shown) [Example 197, [5-cyano-6,8-difluoro-1-(3-furyl)-1,3,4,9-tetrahydropyrano[3,4-b]indol-1-yl]acetic acid] | 55 | > 5000
CC(C)C1(CC(=O)O)OCCc2c1[nH]c1c(F)cc(F)c(C#N)c21 (stereo not shown) [Example 198, (5-cyano-6,8-difluoro-1-isopropyl-1,3,4,9-tetrahydropyrano[3,4-b]indol-1-yl)acetic acid] | 82 | > 5000
Cc1cc(F)c(Br)c2c3c([nH]c12)C(C)(CC(=O)O)OCC3 (stereo not shown) [Example 199, (5-bromo-6-fluoro-1,8-dimethyl-1,3,4,9-tetrahydropyrano[3,4-b]indol-1-yl)acetic acid] | 52 | > 5000
CCC1(CC(=O)O)OCCc2c1[nH]c1c(C)cc(F)c(Br)c21 (stereo not shown) [Example 200, (5-bromo-1-ethyl-6-fluoro-8-methyl-1,3,4,9-tetrahydropyrano[3,4-b]indol-1-yl)acetic acid] | 83 | 2100
CCCC1(CC(=O)O)OCCc2c1[nH]c1c(C)cc(F)c(Br)c21 (stereo not shown) [Example 201, (5-bromo-6-fluoro-8-methyl-1-propyl-1,3,4,9-tetrahydropyrano[3,4-b]indol-1-yl)acetic acid] | 82 | 150
Cc1cc(F)c(Br)c2c3c([nH]c12)C(CC(=O)O)(C(C)C)OCC3 (stereo not shown) [Example 202, (5-bromo-6-fluoro-1-isopropyl-8-methyl-1,3,4,9-tetrahydropyrano[3,4-b]indol-1-yl)acetic acid] | 82 | 2900
CCCCC1(CC(=O)O)OCCc2c1[nH]c1c(C)cc(F)c(Br)c21 (stereo not shown) [Example 203, (5-bromo-1-butyl-6-fluoro-8-methyl-1,3,4,9-tetrahydropyrano[3,4-b]indol-1-yl)acetic acid] | 94 | 190

SMILES | inhibition at 20 µM [%] | IC50 [nM]
Cc1cc(F)c(Br)c2c3c([nH]c12)C(CC(=O)O)(c1ccc(C(=O)O)cc1)OCC3 (stereo not shown) [Example 204, 4-[5-bromo-1-(carboxymethyl)-6-fluoro-8-methyl-1,3,4,9-tetrahydropyrano[3,4-b]indol-1-yl]benzoic acid] | 87 | 1200
Cc1cc(F)c(C#N)c2c3c([nH]c12)C(C)(CC(=O)O)OCC3 (stereo not shown) [Example 205, (5-cyano-6-fluoro-1,8-dimethyl-1,3,4,9-tetrahydropyrano[3,4-b]indol-1-yl)acetic acid] | 34 | > 20000
CCC1(CC(=O)O)OCCc2c1[nH]c1c(C)cc(F)c(C#N)c21 (stereo not shown) [Example 206, (5-cyano-1-ethyl-6-fluoro-8-methyl-1,3,4,9-tetrahydropyrano[3,4-b]indol-1-yl)acetic acid] | 84 | 1100
Cc1cc(F)c(C#N)c2c3c([nH]c12)C(CC(=O)O)(C(C)C)OCC3 (stereo not shown) [Example 207, (5-cyano-6-fluoro-1-isopropyl-8-methyl-1,3,4,9-tetrahydropyrano[3,4-b]indol-1-yl)acetic acid] | 76 | 580
CCCCC1(CC(=O)O)OCCc2c1[nH]c1c(C)cc(F)c(C#N)c21 (stereo not shown) [Example 208, (1-butyl-5-cyano-6-fluoro-8-methyl-1,3,4,9-tetrahydropyrano[3,4-b]indol-1-yl)acetic acid] | 88 | 230
Cc1cc(F)c(C#N)c2c3c([nH]c12)C(CC(=O)O)(c1ccc(C(=O)O)cc1)OCC3 (stereo not shown) [Example 209, 4-[1-(carboxymethyl)-5-cyano-6-fluoro-8-methyl-1,3,4,9-tetrahydropyrano[3,4-b]indol-1-yl]benzoic acid] | 63 | 17900
CCC1(CC(=O)O)OCCc2c1[nH]c1c(Br)ccc(Br)c21 (stereo not shown) [Example 210, (5,8-dibromo-1-ethyl-1,3,4,9-tetrahydropyrano[3,4-b]indol-1-yl)acetic acid] | 87 | 430
CCCC1(CC(=O)O)OCCc2c1[nH]c1c(Br)ccc(Br)c21 (stereo not shown) [Example 211, (5,8-dibromo-1-propyl-1,3,4,9-tetrahydropyrano[3,4-b]indol-1-yl)acetic acid] | 89 | 130
CC(C)C1(CC(=O)O)OCCc2c1[nH]c1c(Br)ccc(Br)c21 (stereo not shown) [Example 212, (5,8-dibromo-1-isopropyl-1,3,4,9-tetrahydropyrano[3,4-b]indol-1-yl)acetic acid] | 81 | 400
CCCCC1(CC(=O)O)OCCc2c1[nH]c1c(Br)ccc(Br)c21 (stereo not shown) [Example 213, (5,8-dibromo-1-butyl-1,3,4,9-tetrahydropyrano[3,4-b]indol-1-yl)acetic acid] | 87 | 280
CCCC1(CC(=O)O)OCCc2c1[nH]c1c(F)ccc(Cl)c21 (stereo not shown) [Example 214, (5-chloro-8-fluoro-1-propyl-1,3,4,9-tetrahydropyrano[3,4-b]indol-1-yl)acetic acid] | 82 | 740
CCCC1(CC(=O)O)OCCc2c1[nH]c1c(F)ccc(I)c21 (stereo not shown) [Example 215, (8-fluoro-5-iodo-1-propyl-1,3,4,9-tetrahydropyrano[3,4-b]indol-1-yl)acetic acid] | 86 | 320
CCCC1(CC(=O)O)OCCc2c1[nH]c1c(Cl)cc(C)c(Cl)c21 (stereo not shown) [Example 216, (5,8-dichloro-6-methyl-1-propyl-1,3,4,9-tetrahydropyrano[3,4-b]indol-1-yl)acetic acid] | 86 | 260
CCCC1(CC(=O)O)OCCc2c1[nH]c1c(Cl)cc(C)c(I)c21 (stereo not shown) [Example 217, (8-chloro-5-iodo-6-methyl-1-propyl-1,3,4,9-tetrahydropyrano[3,4-b]indol-1-yl)acetic acid] | 88 | 630
Cc1cc(F)c2[nH]c3c(c2c1C#N)CCOC3(C)CC(=O)O (stereo not shown) [Example 219, (5-cyano-8-fluoro-1,6-dimethyl-1,3,4,9-tetrahydropyrano[3,4-b]indol-1-yl)acetic acid] | 30 | > 5000
CCC1(CC(=O)O)OCCc2c1[nH]c1c(F)cc(C)c(C#N)c21 (stereo not shown) [Example 220, (5-cyano-1-ethyl-8-fluoro-6-methyl-1,3,4,9-tetrahydropyrano[3,4-b]indol-1-yl)acetic acid] | 43 | > 5000
Cc1cc(F)c2[nH]c3c(c2c1C#N)CCOC3(CC(=O)O)C(C)C (stereo not shown) [Example 222, (5-cyano-8-fluoro-1-isopropyl-6-methyl-1,3,4,9-tetrahydropyrano[3,4-b]indol-1-yl)aceti acid] | 45 | > 5000
